Columns and labels:
rat hepatocytes = assay: In vitro metabolic stability in rat hepatocytes; format: in vitro ADME; details: 1 μM test compound, calculated from half-life
Procedure: Investigation of In Vitro Metabolic Stability in Rat Hepatocytes (Including Calculation of Hepatic In Vivo Blood Clearance (CL))
Hepatocytes from Han Wistar rats were isolated via a 2-step perfusion method. After perfusion, the liver was carefully removed from the rat: the liver capsule was opened and the hepatocytes were gently shaken out into a Petri dish with ice-cold WME. The resulting cell suspension was filtered through sterile gaze in 50 ml falcon tubes and centrifuged at 50×g for 3 min at room temperature.
The cell pellet was resuspended in 30 ml WME and centrifuged through a Percoll® gradient for 2 times at 100×g. The hepatocytes were washed again with Williams' medium E (WME) and resuspended in medium containing 5% FCS. Cell viability was determined by trypan blue exclusion.
For the metabolic stability assay liver cells were distributed in WME containing 5% FCS to glass vials at a density of 1.0×10^6 vital cells/m. The test compound was added to a final concentration of 1 μM. During incubation, the hepatocyte suspensions were continuously shaken and aliquots were taken at 2, 8, 16, 30, 45 and 90 min, to which equal volumes of cold methanol were immediately added. Samples were frozen at −20° C. over night, after subsequently centrifuged for 15 minutes at 3000 rpm and the supernatant was analyzed with an Agilent 1200 HPLC-system with LCMS/MS detection.
The half-life of a test compound was determined from the concentration-time plot. From the half-life the intrinsic clearances were calculated. Together with the additional parameters liver blood flow, amount of liver cells in vivo and in vitro. The hepatic in vivo blood clearance (CL) and the maximal oral bioavailability (Fmax) was calculated. The following parameter values were used: Liver blood flow—4.2 L/h/kg rat; specific liver weight—32 g/kg rat body weight; liver cells in vivo—1.1×10^8 cells/g liver, liver cells in vitro—0.5×10^6/ml.

human kinase Mps-1 = molecular target: T1, human kinase Mps-1 (Homo sapiens, UniProt P33981); assay: Mps-1 Kinase Assay (TR-FRET); format: biochemical; details: 10 μM ATP
T1 construct: N-terminally GST-tagged human full length recombinant Mps-1 kinase; purchased Invitrogen, Karslruhe, Germany PV4071
T1 sequence (P33981 1-857): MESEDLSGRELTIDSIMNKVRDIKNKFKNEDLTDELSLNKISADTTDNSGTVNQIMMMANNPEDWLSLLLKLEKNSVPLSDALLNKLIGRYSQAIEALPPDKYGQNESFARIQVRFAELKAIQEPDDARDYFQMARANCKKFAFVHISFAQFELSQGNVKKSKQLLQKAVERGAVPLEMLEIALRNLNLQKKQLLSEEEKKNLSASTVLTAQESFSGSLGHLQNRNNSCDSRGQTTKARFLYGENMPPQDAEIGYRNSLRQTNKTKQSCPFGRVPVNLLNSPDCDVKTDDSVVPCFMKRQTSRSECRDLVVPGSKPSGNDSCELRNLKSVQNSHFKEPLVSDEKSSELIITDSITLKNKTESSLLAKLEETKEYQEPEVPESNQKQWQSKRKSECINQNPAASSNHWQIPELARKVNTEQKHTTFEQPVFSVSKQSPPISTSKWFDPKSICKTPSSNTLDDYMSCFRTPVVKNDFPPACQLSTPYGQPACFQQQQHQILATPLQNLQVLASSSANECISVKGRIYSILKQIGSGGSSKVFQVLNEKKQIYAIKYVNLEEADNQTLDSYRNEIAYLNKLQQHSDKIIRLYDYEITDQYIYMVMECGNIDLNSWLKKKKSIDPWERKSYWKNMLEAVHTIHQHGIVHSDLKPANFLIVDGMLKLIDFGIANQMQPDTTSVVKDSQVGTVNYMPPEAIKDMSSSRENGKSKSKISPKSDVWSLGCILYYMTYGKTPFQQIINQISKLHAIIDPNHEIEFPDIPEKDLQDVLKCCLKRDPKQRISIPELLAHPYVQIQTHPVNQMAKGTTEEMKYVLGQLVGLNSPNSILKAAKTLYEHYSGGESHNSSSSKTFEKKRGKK
Procedure: The human kinase Mps-1 phosphorylates a biotinylated substrate peptide. Detection of the phosphorylated product is achieved by time-resolved fluorescence resonance energy transfer (TR-FRET) from Europium-labelled anti-phospho-Serine/Threonine antibody as donor to streptavidin Labelled with cross-linked allophycocyanin (SA-XLent) as acceptor. Compounds are tested for their inhibition of the kinase activity.
N-terminally GST-tagged human full length recombinant Mps-1 kinase (purchased from Invitrogen, Karslruhe, Germany, cat. no PV4071) was used. As substrate for the kinase reaction a biotinylated peptide of the amino-acid sequence […] (C-terminus in amide form, purchased from Biosynthan GmbH, Berlin) was used.
The concentration of Mps-1 in the assay was adjusted to the activity of the enzyme lot and was chosen appropriate to have the assay in the linear range, typical enzyme concentrations were in the range of about 1 nM (final conc. in the 5 μl assay volume).
The resulting mixture was incubated 1 h at 22° C. to allow the binding of the phosphorylated peptide to the anti-phospho(Ser/Thr)-Europium-antibody. Subsequently the amount of phosphorylated substrate was evaluated by measurement of the resonance energy transfer from the Europium-labelled anti-phospho(Ser/Thr) antibody to the Streptavidin-XLent.

| SMILES | Fmax (maximal oral bioavailability) (rat hepatocytes) [%] | IC50 (human kinase Mps-1) [nM] |
| --- | --- | --- |
| C=C(c1cccc(OC)c1)c1cc(NCCC(F)(F)F)c2ncc(-c3ccc(C(=O)NC4CC4)c(C)c3)n2n1 [Compound A8, N-Cyclopropyl-4-{6-[1-(3-methoxyphenyl)vinyl]-8-[(3,3,3-trifluoropropyl)amino]imidazo[1,2-b]pyridazin-3-yl}-2-methylbenzamide] | 57 | 0.8 |
| Cc1cc(-c2cnc3c(NCCC(F)(F)F)cc(C(F)c4cccc(F)c4)nn23)ccc1C(=O)NC1CC1 (racemic) [Compound A5, (RS)—N-Cyclopropyl-4-{6-[fluoro(3-fluorophenyl)methyl]-8-[(3,3,3-trifluoropropyl)amino]imidazo[1,2-b]pyridazin-3-yl}-2-methylbenzamide] | 49 | 0.7 |
| Cc1cc(-c2cnc3c(NCCC(F)(F)F)cc(C(F)(F)c4cccc(F)c4F)nn23)ccc1C(=O)NC1CC1 [Compound A18, N-Cyclopropyl-4-{6-[(2,3-difluorophenyl)(difluoro)methyl]-8-[(3,3,3-trifluoropropyl)amino]imidazo[1,2-b]pyridazin-3-yl}-2-methylbenzamide] | 76 | 1.5 |
| Cc1cc(-c2cnc3c(NCCC(F)(F)F)cc(C4(c5cccc(F)c5)CC4)nn23)ccc1C(=O)NC1CC1 [Compound A25, N-cyclopropyl-4-{6-[1-(3-fluorophenyl)cyclopropyl]-8-[(3,3,3-trifluoropropyl)amino]imidazo[1,2-b]pyridazin-3-yl}-2-methylbenzamide] | 52 | 0.9 |
| COc1ccc(C(=O)c2cc(NCCC(F)(F)F)c3ncc(-c4ccc(C(=O)NC5CC5)c(C)c4)n3n2)cc1 [Compound A9, N-Cyclopropyl-4-{6-(4-methoxybenzoyl)-8-[(3,3,3-trifluoropropyl)amino]imidazo[1,2-b]pyridazin-3-yl}-2-methylbenzamide] | 71 | 1.2 |

Now those with a lower IC50 (human kinase Mps-1), led by results:

| Fmax (maximal oral bioavailability) (rat hepatocytes) [%] | IC50 (human kinase Mps-1) [nM] | SMILES |
| --- | --- | --- |
| 18 | 0.2 | Cc1cc(-c2cnc3c(NCCC(F)(F)F)cc(C(O)c4cccc(F)c4O)nn23)ccc1C(=O)NC1CC1 (racemic) [Compound A3, (RS)—N-Cyclopropyl-4-{6-[(3-fluoro-2-hydroxyphenyl)(hydroxy)methyl]-8-[(3,3,3-trifluoropropyl)amino]imidazo[1,2-b]pyridazin-3-yl}-2-methylbenzamide] |
| 45 | 0.3 | Cc1cc(-c2cnc3c(NCCC(F)(F)F)cc(C(O)c4cc(F)ccc4F)nn23)ccc1C(=O)NC1CC1 (racemic) [Compound A11, (RS)—N-Cyclopropyl-4-{6-[(2,5-difluorophenyl)(hydroxy)methyl]-8-[(3,3,3-trifluoropropyl)amino]imidazo[1,2-b]pyridazin-3-yl}-2-methylbenzamide] |
| 64 | 0.6 | COc1ccc(C(F)(F)c2cc(NCCC(F)(F)F)c3ncc(-c4ccc(C(=O)NC5CC5)c(C)c4)n3n2)cc1F [Compound A2, N-Cyclopropyl-4-{6-[difluoro(3-fluoro-4-methoxyphenyl)methyl]-8-[(3,3,3-trifluoropropyl)amino]imidazo[1,2-b]pyridazin-3-yl}-2-methylbenzamide] |
| 28 | 0.4 | C=C(c1cc(NCCC(F)(F)F)c2ncc(-c3ccc(C(=O)NC4CC4)c(C)c3)n2n1)c1cc(F)ccc1O [Compound A22, N-cyclopropyl-4-{6-[1-(5-fluoro-2-hydroxyphenyl)ethenyl]-8-[(3,3,3-trifluoropropyl)amino]imidazo[1,2-b]pyridazin-3-yl}-2-methylbenzamide] |
| 36 | 0.3 | Cc1cc(-c2cnc3c(NCCC(F)(F)F)cc(C(C)(O)c4cccc(F)c4O)nn23)ccc1C(=O)NC1CC1 (racemic) [Compound A4, (RS)—N-Cyclopropyl-4-{6-[1-(3-fluoro-2-hydroxyphenyl)-1-hydroxyethyl]-8-[(3,3,3-trifluoropropyl)amino]imidazo[1,2-b]pyridazin-3-yl}-2-methylbenzamide] |
